In patent US20210379056A1, “SUBSTITUTED PYRAZOLE FUSED RING DERIVATIVE, PREPARATION METHOD THEREFOR, AND APPLICATION THEREOF” (Applied Pharmaceutical Science, Inc., priority 2018, published 2021):
Structures can show the parent of a compound that is named as a salt. Values belong to the compound of their own block, whether it stands above or below them.

Tests used:
RET (V804M) = biological target: T1, RET (V804M) (Homo sapiens, UniProt P07949, V804M); assay: HTRF kinase activity test, RET V804M; type: biochemical; details: Table 3; read-out: RET Enzyme (V804M) IC50
T1 construct: purchased Signalchem R02-12GG
Method: (§1) This test combined peptide substrates and a single proprietary monoclonal antibody with HTRF technology, which was a highly sensitive and stable technology for detecting molecular interactions of proteins. The enzyme phosphorylates the substrate, then the Eu-labeled antibody binds to the phosphorylated substrate, and streptavidin-XL665 binds to all substrates. The TR-FRET signal was generated by the HTRF principle. Once the inhibitor (test compound) was added, a weaker TR-FRET signal is obtained. Based on this, the inhibitory effect was evaluated.
(§2) The other compounds were diluted 3-fold gradiently with DMSO from the 10 mM stock solution to a total of 10 concentrations respectively.
(§3) Adding 4 volumes of distilled water to 1 volume of enzyme buffer 5×; 5 mM MgCl2; 1 mM DTT.
a) Transferring 10 nl of the compound dilution (prepared in 5.2) to each well of the test plate (784075, Greiner);
(§4) b) centrifuging the compound plate for 1 minute at 1000 g.
(§5) c) sealing the test board.
d) preparing 5×Ret wt (0.2 ng/μl) and 5×Ret V804L (0.5 ng/μl)/5×Ret V804M (0.5 ng/μl) in 1× kinase buffer respectively.
e) adding 2 μl of 5×Ret wt or 2 μl of Ret V804L/RET V804M to a 384-well test plate (784075, Greiner).
(§6) f) adding 4 μl of 1× kinase buffer to each well of the test plate, centrifuging the sample plate at 1000 g for 30 seconds, and placing it at room temperature for 10 minutes.
(§7) g) preparing a solution of 5× TK-substrate-biotin ([…]) in kinase buffer and 5×ATP (50 μM) in kinase buffer respectively.
(§8) h) starting the reaction by adding 2 μl STK-substrate-biotin and 2 μl ATP (prepared in the step g).
(§9) i) centrifuging the sample plate for 30 seconds at 1000 g. Sealing the test board and placing it at room temperature for 30 minutes.
j) preparing 4×Sa-XL 665 (250 nM) in HTRF detection buffer.
k) adding 5 μl of Sa-XL 665 and 5 μl of TK-antibody-Cryptate (prepared in the step i) to each well of the test plate.
(§10) ) centrifuging at 1000 g for 30 seconds and placing it at room temperature for 1 hour.
m) reading the fluorescence signal values at 615 nm (Cryptate) and 665 nm (XL665) on the Envision 2104 plate reader.
Calculating the ratio of each hole (665 nm/615 nm).
(§11) The inhibition rate % was calculated as follows:
(§12) Inhibition rate %=[1−(fluorescence signal value of test compound−fluorescence signal value of positive control)/(average ratio of negative control−average ratio of positive control)]*100%
(§13) Ratio: generated from the measured fluorescence signal value
(§14) The average ratio of the positive control is the average ratio of the positive control (200 nM AT13148) in the sample plate;
(§15) The average ratio of negative controls is the average ratio of negative controls (0.1% DMSO) in the sample plate.
(§16) GraphPad 6.0 was used to fit the logarithm of the % inhibition rate and the compound concentration into a nonlinear regression (dose response−variable slope) to calculate the IC50 value.

Ret wt = biological target: T2, Ret wt (Homo sapiens, UniProt P07949); assay: HTRF kinase activity test, RET wild type; type: biochemical; details: Table 3; read-out: RET Enzyme (wild type) IC50
T2 construct: purchased Invitrogen PV3082
Method: as §1, with “Once the inhibitor (test compound) was added, a weaker TR-FRET signal is obtained.” left out
as §2, §3, §4, §5, §6, §7, §8, §9, §10, §11, §12, §13, §14, §15, §16

[1] = system: RET wild-type, mutant and/or fusion-type; assay: Overall statement on RET inhibitory activity (summary of Table 3); details: statement in words summarising Table 3
Text: As shown in the above table, the example compounds of the present disclosure have improved inhibitory activity against RET wild-type, mutant and/or fusion-type.

TT Cell = assay: Cell inhibitory activity test (CCK8); type: cell-based; details: Homo sapiens, TT, Table 3, 72 hours incubation
Method: Cell Inhibitory Activity Test
1. preparing 90 μl of cell suspension in a 96-well plate with 4000 cells/well. Pre-incubating the culture plate in an incubator for 24 hours (37° C., 5% CO2).
2. adding 10 μl of test compounds of different concentrations to each well of cells, and each compound has multiple wells.
3. incubating the culture plate in the incubator for 72 hours.
4. adding 10 μl of CCK8 solution to each well (be careful not to generate bubbles in the well, otherwise they would affect the reading of the OD value).
5. incubating the culture plate in the incubator for 1-2 hours.
6. measuring the absorbance at 450 nm with a microplate reader.
7. according to the compound concentration and absorbance value, GraphpadPrism software was used to calculate the IC50 of each compound.

T2 sequence (P07949 29-1114): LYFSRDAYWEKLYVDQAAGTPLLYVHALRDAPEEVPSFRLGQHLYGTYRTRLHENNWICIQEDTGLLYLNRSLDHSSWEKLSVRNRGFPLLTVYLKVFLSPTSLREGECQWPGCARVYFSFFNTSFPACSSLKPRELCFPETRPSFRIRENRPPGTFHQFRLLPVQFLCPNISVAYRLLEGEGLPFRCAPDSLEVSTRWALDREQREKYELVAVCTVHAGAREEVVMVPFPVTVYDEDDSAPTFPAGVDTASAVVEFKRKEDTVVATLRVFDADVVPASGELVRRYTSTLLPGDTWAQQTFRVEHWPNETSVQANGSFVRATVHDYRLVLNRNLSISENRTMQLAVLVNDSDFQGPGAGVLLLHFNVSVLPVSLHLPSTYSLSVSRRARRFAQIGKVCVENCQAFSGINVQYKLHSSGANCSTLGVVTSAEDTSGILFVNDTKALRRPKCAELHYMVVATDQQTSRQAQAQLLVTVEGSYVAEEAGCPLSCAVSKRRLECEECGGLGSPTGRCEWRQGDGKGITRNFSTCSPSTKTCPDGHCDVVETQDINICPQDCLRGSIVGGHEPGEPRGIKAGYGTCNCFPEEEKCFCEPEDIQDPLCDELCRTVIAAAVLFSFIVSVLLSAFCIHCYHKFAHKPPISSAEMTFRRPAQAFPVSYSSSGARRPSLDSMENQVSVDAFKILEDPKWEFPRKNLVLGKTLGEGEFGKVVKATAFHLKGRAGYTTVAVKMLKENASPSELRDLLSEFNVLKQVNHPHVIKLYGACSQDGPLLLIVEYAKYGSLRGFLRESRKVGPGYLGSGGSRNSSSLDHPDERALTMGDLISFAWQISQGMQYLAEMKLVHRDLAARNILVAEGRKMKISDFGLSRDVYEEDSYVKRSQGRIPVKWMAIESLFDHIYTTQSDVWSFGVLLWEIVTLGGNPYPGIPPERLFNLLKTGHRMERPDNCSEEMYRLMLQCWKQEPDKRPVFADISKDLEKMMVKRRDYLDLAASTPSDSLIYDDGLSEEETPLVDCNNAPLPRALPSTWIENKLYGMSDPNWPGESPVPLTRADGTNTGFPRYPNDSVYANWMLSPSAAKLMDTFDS
T1 sequence (P07949 29-1114 V804M): as the sequence (P07949 29-1114) above, with V776M counted along it

SMILES: COc1ccc(CN2C3CC2CN(c2cnc(-c4cc(OC[C@@H]5CNCCO5)cn5nc(N)c(C#N)c45)cn2)C3)cn1 [APS087, 2-amino-4-(5-(6-((6-methoxypyridin-3-yl)methyl)-3,6-diazabicyclo[3.1.1]heptan-3-yl)pyrazin-2-yl)-6-(((S)-morpholin-2-yl)methoxy)pyrazolo[1,5-a]pyridine-3-carbonitrile trifluoroacetate]
IC50 (RET (V804M)): < 1 nM
IC50 (Ret wt): < 1 nM
inhibitory activity against RET wild-type, mutant and/or fusion-type [1]: excellent activity
IC50 (TT Cell): < 1 nM

SMILES: COc1ccc(CN2C3CC2CN(c2ccc(-c4cc(OCC(C)(C)O)cn5nc(N)c(C#N)c45)cn2)C3)cn1 [APS089]
IC50 (RET (V804M)): 1.6 nM
IC50 (Ret wt): 1.8 nM
inhibitory activity against RET wild-type, mutant and/or fusion-type [1]: excellent activity
IC50 (TT Cell): 18.6 nM

SMILES: COc1ccc(CN2C3CC2CN(c2ccc(-c4cc(OCC(C)(C)O)cn5nc(F)c(C#N)c45)cn2)C3)cn1 [APS090]
IC50 (RET (V804M)): 486 nM
IC50 (Ret wt): 54 nM
IC50 (TT Cell): 31.4 nM

SMILES: CCOc1cc(-c2cnc(N3CC4CC(C3)N4Cc3ccc(OC)nc3)cn2)c2c(C#N)c(N)nn2c1 [APS092, 2-amino-6-ethoxy-4-(5-(6-((6-methoxypyridin-3-yl)methyl)-3,6-diazabicyclo[3.1.1]heptane-3-yl)pyrazin-2-yl)pyrazolo[1,5-a]pyridine-3-carbonitrile]
IC50 (RET (V804M)): 2.7 nM
IC50 (Ret wt): 4.3 nM
inhibitory activity against RET wild-type, mutant and/or fusion-type [1]: excellent activity
IC50 (TT Cell): 60 nM

SMILES: CCOc1cc(-c2ccc(N3CC4CC(C3)N4Cc3ccc(OC)nc3)nc2)c2c(C#N)c(N)nn2c1 [APS095]
IC50 (RET (V804M)): < 1 nM
IC50 (Ret wt): < 1 nM
inhibitory activity against RET wild-type, mutant and/or fusion-type [1]: excellent activity
IC50 (TT Cell): 38.6 nM

SMILES: COCCOc1cc(-c2ccc(N3CC4CC(C3)N4Cc3ccc(OC)nc3)nc2)c2c(C#N)c(N)nn2c1 [APS097, 2-amino-6-(2-methoxyethoxy)-4-(6-(6-((6-methoxypyridin-3-yl)methyl)-3,6-diazabicyclo[3.1.1]heptan-3-yl)pyridin-3-yl)pyrazolo[1,5-a]pyridine-3-carbonitrile]
IC50 (RET (V804M)): < 1 nM
IC50 (Ret wt): < 1 nM
inhibitory activity against RET wild-type, mutant and/or fusion-type [1]: excellent activity
IC50 (TT Cell): 75.5 nM

IC50 (RET (V804M)): 85.6 nM
IC50 (Ret wt): 144 nM
SMILES: COCCOc1cc(-c2ccc(N3CC4CC(C3)N4Cc3ccc(OC)nc3)nc2)c2c(C#N)c(F)nn2c1 [APS098, 2-fluoro-6-(2-methoxyethoxy)-4-(6-(6-((6-methoxypyridin-3-yl)methyl)-3,6-diazabicyclo [3.1.1]heptan-3-yl)pyridin-3-yl)pyrazolo[1,5-a]pyridine-3-carbonitrile]

IC50 (RET (V804M)): 155 nM
IC50 (Ret wt): 261 nM
SMILES: COCCOc1cc(-c2ccc(N3CC4CC(C3)N4Cc3ccc(OC)nc3)nc2)c2c(C#N)c(NC(C)=O)nn2c1 [APS103]

SMILES: COc1ccc(CN2C3CC2CN(c2cnc(-c4cc(OC[C@@H]5CN(C)CCO5)cn5nc(F)c(C#N)c45)cn2)C3)cn1 [APS104, 2-fluoro-4-(5-(6-((6-methoxypyridin-3-yl)methyl)-3,6-diazabicyclo[3.1.1]heptan-3-yl)pyrazin-2-yl)-6-(((S)-4-methylmorpholin-2-yl)methoxy)pyrazolo[1,5-a]pyridine-3-carbonitrile]
IC50 (RET (V804M)): 14 nM
IC50 (Ret wt): 6.9 nM
inhibitory activity against RET wild-type, mutant and/or fusion-type [1]: excellent activity

SMILES: CCOc1cc(-c2ccc(N3CC4CC(C3)N4Cc3cnc(OC)c(Cl)c3)nc2)c2c(C#N)c(N)nn2c1 [APS105]
IC50 (RET (V804M)): < 1 nM
IC50 (Ret wt): < 1 nM
inhibitory activity against RET wild-type, mutant and/or fusion-type [1]: excellent activity
IC50 (TT Cell): 28.1 nM

IC50 (RET (V804M)): 971 nM
IC50 (Ret wt): 745 nM
SMILES: COc1ccc(CN2C3CC2CN(c2ccc(-c4cc(OCC(C)(C)O)cn5nc(N)c(C(N)=O)c45)cn2)C3)cn1 [APS106]

SMILES: COc1ccc(CN2C3CC2CN(c2cnc(-c4cc(OC[C@@H]5CN(C)CCO5)cn5nc(N)c(C#N)c45)cn2)C3)cn1 [APS107, 2-amino-4-(5-(6-((6-methoxypyridin-3-yl)methyl)-3,6-diazabicyclo[3.1.1]heptan-3-yl)pyrazin-2-yl)-6-(((S)-4-methylmorpholin-2-yl)methoxy)pyrazolo[1,5-a]pyridine-3-carbonitrile]
IC50 (RET (V804M)): < 1 nM
IC50 (Ret wt): < 1 nM
inhibitory activity against RET wild-type, mutant and/or fusion-type [1]: excellent activity
IC50 (TT Cell): 16.3 nM

SMILES: COCCOc1cc(-c2ccc(N3CC4CC(C3)N4Cc3cnc(OC)c(Cl)c3)nc2)c2c(C#N)c(N)nn2c1 [APS108, 2-amino-4-(6-(6-((5-chloro-6-methoxypyridin-3-yl)methyl)-3,6-diazabicyclo[3.1.1]heptane-3-yl)pyridin-3-yl)-6-(2-methoxyethoxy)pyrazolo[1,5-a]pyridine-3-carbonitrile]
IC50 (RET (V804M)): < 1 nM
IC50 (Ret wt): < 1 nM
inhibitory activity against RET wild-type, mutant and/or fusion-type [1]: excellent activity
IC50 (TT Cell): 10.7 nM

SMILES: CCOCCOc1cc(-c2ccc(N3CC4CC(C3)N4Cc3ccc(OC)nc3)nc2)c2c(C#N)c(N)nn2c1 [APS109, 2-amino-6-(2-ethoxyethoxy)-4-(6-(6-((6-methoxypyridin-3-yl)methyl)-3,6-diazabicyclo [3.1.1]heptan-3-yl)pyridin-3-yl)pyrazolo[1,5-a]pyridine-3-carbonitrile]
IC50 (RET (V804M)): < 1 nM
IC50 (Ret wt): < 1 nM
inhibitory activity against RET wild-type, mutant and/or fusion-type [1]: excellent activity
IC50 (TT Cell): 57.9 nM

SMILES: COc1ccc(CN2C3CC2CN(c2ccc(-c4cc(OCCOC5CC5)cn5nc(N)c(C#N)c45)cn2)C3)cn1 [APS113, 2-amino-6-(2-cyclopropoxyethoxy)-4-(6-(6-((6-methoxypyridin-3-yl)methyl)-3,6-diazabicyclo[3.1.1]heptan-3-yl)pyridin-3-yl)pyrazolo[1,5-a]pyridine-3-carbonitrile]
IC50 (RET (V804M)): < 1 nM
IC50 (Ret wt): < 1 nM
inhibitory activity against RET wild-type, mutant and/or fusion-type [1]: excellent activity
IC50 (TT Cell): 83.5 nM

SMILES: COc1ccc(CN2C3CC2CN(c2ccc(-c4cc(OCC(F)F)cn5nc(N)c(C#N)c45)cn2)C3)cn1 [APS114, 2-amino-6-(2,2-difluoroethoxy)-4-(6-(6-((6-methoxypyridin-3-yl)methyl)-3,6-diazabicyclo[3.1.1]heptan-3-yl)pyridin-3-yl)pyrazolo[1,5-a]pyridine-3-carbonitrile]
IC50 (RET (V804M)): < 1 nM
IC50 (Ret wt): 2 nM
inhibitory activity against RET wild-type, mutant and/or fusion-type [1]: excellent activity

IC50 (RET (V804M)): 8.8 nM
IC50 (Ret wt): 45.9 nM
SMILES: COc1ccc(CN2C3CC2CN(c2ccc(-c4cc(OC(F)F)cn5nc(N)c(C#N)c45)cn2)C3)cn1 [APS115, 2-amino-6-(difluoromethoxy)-4-(6-(6-((6-methoxypyridin-3-yl)methyl)-3,6-diazabicyclo[3.1.1]heptan-3-yl)pyridin-3-yl)pyrazolo[1,5-a]pyridine-3-carbonitrile]
